Measured values from ChEMBL document CHEMBL5113491, “Discovery of N-benzylarylamide derivatives as novel tubulin polymerization inhibitors capable of activating the Hippo pathway” (Eur J Med Chem, 2022).
Calls of active or inactive are those of the source. The calls are words filed in the database; no cut-off is given here.

Tests used:
MGC-803 = test: Antiproliferative activity against human MGC-803 cells assessed as inhibition of cell growth measured after 48 hrs by MTT assay; format: functional, cell-based; settings: MGC-803, 48 h
KYSE-450 = test: Antiproliferative activity against human KYSE-450 cells assessed as inhibition of cell growth measured after 48 hrs by MTT assay; format: functional, cell-based; settings: KYSE-450, 48 h
HCT-116 = test: Antiproliferative activity against human HCT-116 cells assessed as inhibition of cell growth measured after 48 hrs by MTT assay; format: functional, cell-based; settings: HCT-116, 48 h
[1] = Inhibition of porcine brain microtubule polymerization measured after 1 hrs by fluorescence based assay; design: species or system Sus scrofa
Sus scrofa = organism: Sus scrofa; test: Inhibition of porcine brain microtubule polymerization at 3 umol/L measured after 5 sec by fluorescence based assay; settings: dose 3.0 µmol/L

IC50 (MGC-803) [nM] | IC50 (HCT-116) [nM] | inhibition (Sus scrofa) | Structure (SMILES) | IC50 (KYSE-450) [nM] | IC50 [1] [nM]
24500 | 22500 | – | COc1ccc(N(Cc2cc(OC)c(OC)c(OC)c2)C(=O)CCl)cc1O | 29800 | –
79 | 230 | – | COCC(=O)N(Cc1ccc(OC)c(O)c1)c1cc(OC)c(OC)c(OC)c1 | 460 | –
79 | 270 | – | COc1ccc(CN(C(C)=O)c2cc(OC)c(OC)c(OC)c2)cc1O | 160 | –
50 | 61 | – | CCC(=O)N(Cc1ccc(OC)c(O)c1)c1cc(OC)c(OC)c(OC)c1 | 98 | –
170 | 310 | – | C#CC(=O)N(Cc1ccc(OC)c(O)c1)c1cc(OC)c(OC)c(OC)c1 | 570 | –
160 | 520 | – | COc1ccc(CN(C(=O)CO)c2cc(OC)c(OC)c(OC)c2)cc1O | 370 | –
320 | 290 | – | COc1ccc(CN(C(=O)C=C(C)C)c2cc(OC)c(OC)c(OC)c2)cc1O | 280 | –
390 | 200 | – | C=C(C)C(=O)N(Cc1ccc(OC)c(O)c1)c1cc(OC)c(OC)c(OC)c1 | 200 | –
210 | 310 | – | COc1ccc(CN(C(=O)C(C)C)c2cc(OC)c(OC)c(OC)c2)cc1O | 390 | –
70 | 95 | – | CCC/C=C/C(=O)N(Cc1ccc(OC)c(O)c1)c1cc(OC)c(OC)c(OC)c1 | 57 | –
71 | 59 | – | COc1ccc(CN(C(=O)/C=C/CBr)c2cc(OC)c(OC)c(OC)c2)cc1O | 100 | –
66 | 170 | – | CCCCC(=O)N(Cc1ccc(OC)c(O)c1)c1cc(OC)c(OC)c(OC)c1 | 300 | –
59 | 49 | – | COc1ccc(CN(C(=O)C2CC2)c2cc(OC)c(OC)c(OC)c2)cc1O | 80 | –
58 | 63 | – | CC/C=C/C(=O)N(Cc1ccc(OC)c(O)c1)c1cc(OC)c(OC)c(OC)c1 | 72 | –
270 | 310 | – | COc1ccc(CN(C(=O)C[Se]C#N)c2cc(OC)c(OC)c(OC)c2)cc1O | 280 | –
62 | 98 | – | C=CC(=O)N(Cc1ccc(OC)c(O)c1)c1cc(OC)c(OC)c(OC)c1 | 160 | –
540 | 220 | – | COc1ccc(CN(C(=O)CCCCCl)c2cc(OC)c(OC)c(OC)c2)cc1O | 770 | –
120 | 140 | – | COc1ccc(CN(C(=O)C(C)Br)c2cc(OC)c(OC)c(OC)c2)cc1O (centres undefined) | 160 | –
140 | 68 | – | COc1ccc(CN(C(=O)CBr)c2cc(OC)c(OC)c(OC)c2)cc1O | 120 | –
120 | 410 | – | COc1ccc(CN(C(=O)CN=[N+]=[N-])c2cc(OC)c(OC)c(OC)c2)cc1O | 160 | –
140 | 150 | – | COc1ccc(CN(C(=O)CCCl)c2cc(OC)c(OC)c(OC)c2)cc1O | 110 | –
84 | 250 | – | COc1ccc(CN(C(=O)CCl)c2cc(OC)c(OC)c(OC)c2)cc1O | 210 | –

The next lines start with the compound.

Structure (SMILES) | IC50 (MGC-803) [nM] | IC50 (HCT-116) [nM] | inhibition (Sus scrofa) | IC50 (KYSE-450) [nM] | IC50 [1] [nM]
COc1ccc(CNc2cc(OC)c(OC)c(OC)c2)cc1 | 11400 | 18400 | – | 4890 | –
COc1ccc(CNc2cc(OC)c(OC)c(OC)c2)cc1OC | 46200 | 50800 | – | 57200 | –
COC(=O)c1cc(CNc2cc(OC)c(OC)c(OC)c2)ccc1OC | 49600 | 38100 | – | 41100 | –
C/C=C/C(=O)N(Cc1ccc(OC)c(C)c1)c1cc(OC)c(OC)c(OC)c1 | 14500 | 23500 | – | 32900 | –
COc1cc(NCc2ccc(Br)cc2)cc(OC)c1OC | > 80000 | > 80000 | – | > 80000 | –
C/C=C/C(=O)N(Cc1ccc(OC)c(N)c1)c1cc(OC)c(OC)c(OC)c1 | 150 | 300 | – | 310 | –
C/C=C/C(=O)N(Cc1cccc(O)c1)c1cc(OC)c(OC)c(OC)c1 | 14100 | 6700 | – | 14700 | –
COc1cc(NCc2ccc(Cl)cc2)cc(OC)c1OC | > 80000 | > 80000 | – | > 80000 | –
C/C=C/C(=O)N(Cc1ccc(OC)c(Br)c1)c1cc(OC)c(OC)c(OC)c1 | 6430 | 2800 | – | 10500 | –
COc1ccc(CNc2cc(OC)c(OC)c(OC)c2)cc1Br | 29400 | 48100 | – | 39800 | –
COc1ccc(/C=C\c2cc(OC)c(OC)c(OC)c2)cc1O [COMBRETASTATIN A4] | 8 | 10 | – | 12 | 6710
COc1ccc(CNc2cc(OC)c(OC)c(OC)c2)cc1O | 1490 | 3220 | Active | 1400 | –
C/C=C/C=C/C(=O)N(Cc1ccc(OC)c(O)c1)c1cc(OC)c(OC)c(OC)c1 | 140 | 180 | – | 180 | –
COc1ccc(CNc2cc(OC)c(OC)c(OC)c2)cc1Cl | 46200 | 41700 | – | 47800 | –
COc1ccc(CNc2cc(OC)c(OC)c(OC)c2)cc1N | 7970 | 8270 | – | 2210 | –
C/C=C/C(=O)N(Cc1ccc(OC)c(Cl)c1)c1cc(OC)c(OC)c(OC)c1 | 7100 | 1420 | – | 10100 | –
COc1cc(NCc2ccccc2)cc(OC)c1OC | > 80000 | > 80000 | – | > 80000 | –
C/C=C/C(=O)N(Cc1ccc(OC)c([N+](=O)[O-])c1)c1cc(OC)c(OC)c(OC)c1 | 590 | 670 | – | 510 | –
COc1cc(NCc2ccc(C)cc2)cc(OC)c1OC | > 80000 | > 80000 | – | > 80000 | –
COc1ccc(CNc2cc(OC)c(OC)c(OC)c2)cc1F | 39700 | 32200 | – | 46200 | –
COc1cc(NCc2cccc(O)c2)cc(OC)c1OC | 57600 | 67700 | – | 71300 | –
C/C=C/C(=O)N(Cc1ccc(OC)c(F)c1)c1cc(OC)c(OC)c(OC)c1 | 1650 | 1160 | – | 1400 | –
COc1cc2c(c(OC)c1OC)-c1ccc(OC)c(=O)cc1[C@@H](NC(C)=O)CC2 [COLCHICINE] | 62 | 81 | – | 77 | –
C/C=C/C(=O)N(Cc1ccc(OC)cc1)c1cc(OC)c(OC)c(OC)c1 | 450 | 500 | – | 420 | –
COc1ccc(NCc2cc(OC)c(OC)c(OC)c2)cc1O | 9590 | 5230 | Active | 4180 | –
C/C=C/C(=O)N(Cc1ccc(OC)c(OC)c1)c1cc(OC)c(OC)c(OC)c1 | 20100 | 32800 | – | 39100 | –
C/C=C/C(=O)N(Cc1cc(OC)c(OC)c(OC)c1)c1ccc(OC)c(O)c1 | 6150 | 8450 | – | 9160 | –
COc1ccc(N(Cc2cc(OC)c(OC)c(OC)c2)C(=O)CN=[N+]=[N-])cc1O | 22400 | 38800 | – | 26100 | –
COc1ccc(CNc2cc(OC)c(OC)c(OC)c2)cc1C | 56800 | 60800 | – | 73800 | –
COc1ccc(CNc2cc(OC)c(OC)c(OC)c2)cc1[N+](=O)[O-] | 19400 | 18200 | – | 16800 | –
